doi:10.1101/2022.06.13.495986v1 (biorxiv, 2022)

Biological target: T1, HepII (Heptosyltransferase II) (Escherichia coli, UniProt P37692)
T1 sequence (P37692 1-348): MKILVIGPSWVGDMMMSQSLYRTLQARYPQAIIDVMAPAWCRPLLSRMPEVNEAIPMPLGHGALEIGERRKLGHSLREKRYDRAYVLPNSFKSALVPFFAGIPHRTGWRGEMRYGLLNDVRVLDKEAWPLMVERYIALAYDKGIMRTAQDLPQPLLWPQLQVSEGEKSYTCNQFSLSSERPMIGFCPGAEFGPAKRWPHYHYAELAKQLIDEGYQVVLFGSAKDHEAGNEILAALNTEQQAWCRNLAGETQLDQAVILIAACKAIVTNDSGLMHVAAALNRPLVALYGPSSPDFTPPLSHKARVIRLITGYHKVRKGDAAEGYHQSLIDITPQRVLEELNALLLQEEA
Test: tryptophan fluorescence quenching
Type: binding

Kd: 660 ± 460 nM
SMILES: Nc1ncnc2c1ncn2[C@@H]1O[C@H](COP(=O)(O)OP(=O)(O)O[C@@H]2O[C@H]([C@@H](O)CO)[C@@H](O)[C@H](O)[C@@H]2O)[C@@H](O)[C@H]1O [ADP-Hep]
